Measurements: ChEMBL document CHEMBL1129711, “Nonpeptide GPIIb/IIIa inhibitors. 10. Centrally constrained alpha-sulfonamides are potent inhibitors of platelet aggregation” (Bioorg Med Chem Lett, 1996)
pIC50, pKd: −log10 of the molar value.

How the values were obtained:
[1] = biological target: T1, Integrin alpha-IIb/beta-3 (Homo sapiens, UniProt P05106+P08514); assay: Binding affinity against alpha IIb beta-3 integrin by [125I]-L-692,884 displacement.; assay type: protein-complex assay
[2] = biological target: T1, Integrin alpha-IIb/beta-3; assay: Binding affinity against alpha IIb beta-3 integrin in the presence of L-736622.; assay type: protein-complex assay
Target sequence in this assay (P05106 27-788 limits assumed): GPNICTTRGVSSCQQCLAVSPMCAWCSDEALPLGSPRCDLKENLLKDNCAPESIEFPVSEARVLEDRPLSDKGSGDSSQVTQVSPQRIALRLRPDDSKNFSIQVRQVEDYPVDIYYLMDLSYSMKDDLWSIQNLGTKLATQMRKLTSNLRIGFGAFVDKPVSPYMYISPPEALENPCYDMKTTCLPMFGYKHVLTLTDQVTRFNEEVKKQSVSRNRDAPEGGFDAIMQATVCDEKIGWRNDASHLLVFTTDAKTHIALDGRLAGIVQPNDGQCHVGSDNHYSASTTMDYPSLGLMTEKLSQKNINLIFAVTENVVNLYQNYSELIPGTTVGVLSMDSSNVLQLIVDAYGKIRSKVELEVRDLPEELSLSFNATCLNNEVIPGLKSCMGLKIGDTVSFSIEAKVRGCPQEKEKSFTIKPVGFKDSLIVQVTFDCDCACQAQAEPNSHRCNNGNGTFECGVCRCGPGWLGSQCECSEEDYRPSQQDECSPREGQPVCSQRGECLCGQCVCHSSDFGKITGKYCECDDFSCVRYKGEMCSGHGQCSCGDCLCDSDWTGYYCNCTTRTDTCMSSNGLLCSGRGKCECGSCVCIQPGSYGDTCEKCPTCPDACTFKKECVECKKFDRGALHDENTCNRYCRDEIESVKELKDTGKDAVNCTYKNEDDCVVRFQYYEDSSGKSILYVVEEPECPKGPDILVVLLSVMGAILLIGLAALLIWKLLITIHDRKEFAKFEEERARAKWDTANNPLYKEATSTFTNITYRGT
Target sequence in this assay (P08514 32-887 limits assumed): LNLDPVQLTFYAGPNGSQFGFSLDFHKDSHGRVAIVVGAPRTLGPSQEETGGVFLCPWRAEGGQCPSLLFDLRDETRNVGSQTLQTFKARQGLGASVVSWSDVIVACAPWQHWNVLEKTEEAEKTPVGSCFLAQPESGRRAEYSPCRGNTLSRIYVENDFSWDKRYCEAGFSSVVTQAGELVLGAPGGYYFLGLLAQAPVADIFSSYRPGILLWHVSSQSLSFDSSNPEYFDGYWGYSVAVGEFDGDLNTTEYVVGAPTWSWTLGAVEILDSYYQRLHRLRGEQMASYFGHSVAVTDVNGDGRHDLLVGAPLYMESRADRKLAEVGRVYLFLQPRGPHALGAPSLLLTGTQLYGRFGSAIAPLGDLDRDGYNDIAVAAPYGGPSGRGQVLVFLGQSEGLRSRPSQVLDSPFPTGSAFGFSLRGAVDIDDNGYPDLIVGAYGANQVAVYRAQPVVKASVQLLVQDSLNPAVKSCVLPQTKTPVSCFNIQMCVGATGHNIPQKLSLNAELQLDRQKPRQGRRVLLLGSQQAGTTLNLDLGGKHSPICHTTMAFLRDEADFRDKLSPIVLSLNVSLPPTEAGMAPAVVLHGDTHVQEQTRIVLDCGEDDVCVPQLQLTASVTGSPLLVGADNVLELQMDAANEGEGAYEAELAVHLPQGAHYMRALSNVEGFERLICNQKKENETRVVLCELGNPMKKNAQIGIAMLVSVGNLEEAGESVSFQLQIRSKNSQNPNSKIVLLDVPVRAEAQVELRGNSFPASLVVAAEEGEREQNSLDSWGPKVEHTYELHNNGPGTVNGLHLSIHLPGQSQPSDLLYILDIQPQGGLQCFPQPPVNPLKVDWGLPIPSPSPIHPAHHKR
Target sequence in this assay (P08514 891-1039 limits assumed): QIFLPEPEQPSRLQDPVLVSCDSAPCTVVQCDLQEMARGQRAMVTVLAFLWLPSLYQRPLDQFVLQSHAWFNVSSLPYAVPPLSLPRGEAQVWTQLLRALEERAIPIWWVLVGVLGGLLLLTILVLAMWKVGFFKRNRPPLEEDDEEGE

Homo sapiens = organism: Homo sapiens; assay: In vitro inhibition of ADP-induced human platelet aggregation.; assay type: functional

Structure (SMILES) | ED50 [1] | pKd [2] | pIC50 (Homo sapiens)
CCOCCS(=O)(=O)N[C@@H](CNC(=O)c1ccc2c(c1)C(=O)N(CCC1CCNCC1)C2)C(=O)O | 1.1 nM | 8.29 | 8.10
O=C(NCc1ccccc1)N[C@@H](CNC(=O)c1ccc2c(c1)C(=O)N(CCC1CCNCC1)C2)C(=O)O | 1.2 nM | 8.22 | 8.00
CCCCS(=O)(=O)N[C@@H](CNC(=O)c1ccc2c(c1)C(=O)N(CCC1CCNCC1)C2)C(=O)O (stereo in doubt) [listing 1 of 2 here] | 5.5 nM |  | 
O=C(O)c1ccc(S(=O)(=O)N[C@@H](CNC(=O)c2ccc3c(c2)C(=O)N(CCC2CCNCC2)C3)C(=O)O)cc1 | 2 nM | 7.82 | 8.15
CCCCS(=O)(=O)N[C@@H](CNC(=O)c1ccc2c(c1)C(=O)N(CCC1CCNCC1)C2)C(=O)O (stereo in doubt) [listing 2 of 2 here] |  | 8.06 | 7.85
CCCCCC(=O)N[C@@H](CNC(=O)c1ccc2c(c1)C(=O)N(CCC1CCNCC1)C2)C(=O)O | 4.2 nM | 8.19 | 7.89
CCCCNS(=O)(=O)N[C@@H](CNC(=O)c1ccc2c(c1)C(=O)N(CCC1CCNCC1)C2)C(=O)O | 2.8 nM | 7.68 | 7.72
O=C(NC[C@H](NS(=O)(=O)Cc1ccccc1)C(=O)O)c1ccc2c(c1)C(=O)N(CCC1CCNCC1)C2 | 1.6 nM | 7.92 | 8.40
CS(=O)(=O)N[C@@H](CNC(=O)c1ccc2c(c1)C(=O)N(CCC1CCNCC1)C2)C(=O)O | 3.4 nM | 8.13 | 7.85
O=C(NC[C@H](NS(=O)(=O)c1ccccc1C(=O)O)C(=O)O)c1ccc2c(c1)C(=O)N(CCC1CCNCC1)C2 | 0.83 nM | 8.19 | 7.82
CCCCS(=O)(=O)N[C@@H](CNC(=O)c1ccc2c(c1)C(=O)N(CCC1CCNCC1)C2)C(=O)O (stereo in doubt; 13) [listing 1 of 2 here] | 1.3 nM |  | 
O=C(O)CCNC(=O)c1ccc2c(c1)C(=O)N(CCC1CCNCC1)C2 |  | 7.00 | 
CCCCNC(=O)N[C@@H](CNC(=O)c1ccc2c(c1)C(=O)N(CCC1CCNCC1)C2)C(=O)O | 1.4 nM | 8.16 | 7.80
CC(C)CS(=O)(=O)N[C@@H](CNC(=O)c1ccc2c(c1)C(=O)N(CCC1CCNCC1)C2)C(=O)O | 1.2 nM | 8.12 | 8.05
CCCCS(=O)(=O)N[C@@H](CNC(=O)c1ccc2c(c1)C(=O)N(CCC1CCNCC1)C2)C(=O)O (stereo in doubt; 13) [listing 2 of 2 here] |  | 8.36 | 
CCCCCS(=O)(=O)N[C@@H](CNC(=O)c1ccc2c(c1)C(=O)N(CCC1CCNCC1)C2)C(=O)O | 0.88 nM | 8.12 | 8.05
CCCCS(=O)(=O)N[C@@H](Cc1ccc(OCCCCC2CCNCC2)cc1)C(=O)O [TIROFIBAN] | 0.97 nM |  | 7.96
O=C(NC[C@H](NS(=O)(=O)c1cccs1)C(=O)O)c1ccc2c(c1)C(=O)N(CCC1CCNCC1)C2 | 0.53 nM | 8.11 | 8.15
O=C(NC[C@H](NS(=O)(=O)c1ccccc1)C(=O)O)c1ccc2c(c1)C(=O)N(CCC1CCNCC1)C2 | 0.33 nM | 8.43 | 8.10
O=C(NC[C@H](NS(=O)(=O)c1cccnc1)C(=O)O)c1ccc2c(c1)C(=O)N(CCC1CCNCC1)C2 | 0.38 nM | 8.44 | 7.82
